Laboratory results reported in paper PMC10410440, “Preclinical PK investigation of a novel IDO1/TDO dual inhibitor—SHR9146 in mouse plasma and tissues by LC-MS/MS” (Frontiers in Oncology, 2023).
“Also recorded” adds a separate entry of the source.

Tests used:
[1] = Stability of SHR9146 in mouse plasma, whole blood and post-preparative samples; assay type: in vitro ADME
Method: The plasma samples were examined under different conditions, including at room temperature for 6 h, three freeze–thaw cycles, and at −20°C and −70°C for 50 days. Post-preparative plasma samples were studied after being placed at room temperature for 24 h. […] Samples were considered to be stable if the deviations between measured concentration and the spiked values were within ±15%.

[2] = test system: colon cancer (MC38) cells; set-up: method as in earlier work; conditions: SHR9146 combined with the PD-1 antibody vs single PD-1 antibody or SHR9146, and vs PD-1 antibody combined with INCB024360 or NLG0919100; cited from earlier work
advanced solid tumors = test system: advanced solid tumors; set-up: method as in doi:10.1200/JCO.2021.39.15_suppl.3101; conditions: SHR9146 plus camrelizumab in combination with/without apatinib; cited from earlier work
[3] = mouse plasma, after three freeze–thaw cycles, QC spiked 0.15 μg/mL, n=3
[4] = mouse plasma, after three freeze–thaw cycles, QC spiked 40 μg/mL, n=3
[5] = mouse plasma, at -70 °C for 50 days, QC spiked 0.15 μg/mL, n=3
[6] = mouse plasma, at -70 °C for 50 days, QC spiked 40 μg/mL, n=3
[7] = mouse plasma, at room temperature for 6 h, QC spiked 0.15 μg/mL, n=3
[8] = mouse plasma, at room temperature for 6 h, QC spiked 40 μg/mL, n=3
[9] = mouse plasma, at −20 °C for 50 days, QC spiked 0.15 μg/mL, n=3
[10] = mouse plasma, at −20 °C for 50 days, QC spiked 40 μg/mL, n=3
[11] = mouse whole blood samples at room temperature for 2 h, QC spiked 0.15 μg/mL, n=3
[12] = mouse whole blood samples at room temperature for 2 h, QC spiked 40 μg/mL, n=3
[13] = post-preparation plasma samples at room temperature for 24 h, QC spiked 0.15 μg/mL, n=3
[14] = post-preparation plasma samples at room temperature for 24 h, QC spiked 40 μg/mL, n=3

OCCn1cc(-c2ccc(N3CCC([C@H]4c5c(F)cccc5-c5cncn54)CC3)cc2)cn1 [SHR9146]
RE ([1]; mouse plasma samples at room temperature for 6 h, QC levels not separated): −11.1%
Measured value [1, 3]: 0.151 ± 0.002 µg/mL
RE [1, 3]: 1.0%
Measured value [1, 4]: 40.2 ± 0.33 µg/mL
RE [1, 4]: 0.6%
Measured value [1, 5]: 0.151 ± 0.004 µg/mL
RE [1, 5]: 0.5%
Measured value [1, 6]: 39.5 ± 0.26 µg/mL
RE [1, 6]: −1.2%
Measured value [1, 7]: 0.133 ± 0.002 µg/mL
RE [1, 7]: −11.1%
Measured value [1, 8]: 35.6 ± 0.17 µg/mL
RE [1, 8]: −11.1%
Measured value [1, 9]: 0.148 ± 0.004 µg/mL
RE [1, 9]: −1.6%
Measured value [1, 10]: 39.5 ± 0.11 µg/mL
RE [1, 10]: −1.2%
Measured value [1, 11]: 0.145 ± 0.002 µg/mL
RE [1, 11]: −0.5%
Measured value [1, 12]: 39.4 ± 0.22 µg/mL
RE [1, 12]: −0.1%
Measured value [1, 13]: 0.151 ± 0.003 µg/mL
RE [1, 13]: 0.8%
Measured value [1, 14]: 40.3 ± 0.09 µg/mL
RE [1, 14]: 0.8%
stability in bio-samples ([1]; various storage conditions, stable if deviation within ±15%): stable in all the tested bio-samples; also recorded: stable under various storage conditions
inhibitory effect on colon cancer (MC38) cells [2]: significantly better inhibitory effect
antitumor activity and safety in patients (advanced solid tumors): promising antitumor activity with acceptable safety
